One series relates to MNV. Kind of series: MNV CPE reduction assay (MTS) in RAW 264.7 cells. It is filed as cell-based, mouse norovirus (MNV-1.CW1). As to conditions: Norovirus, RAW264.7, in Mus musculus, Table 2, RAW 264.7, range 0.6–100 µM, at least three independent experiments. The method, boiled down: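 MNV-1.CW1-infected RAW 264.7 cells treated at eight concentrations (0.6–100 µM), 2′-C-methylcytidine as positive control. Viability read by MTS/PMS at OD 498 nm after 2 h; %CPE reduction normalised to uninfected and infected untreated cells, EC50 = concentration protecting 50% of cells from virus-induced CPE.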

Series [1] is described as follows: Cytotoxicity by the MTS method on uninfected cells. It is filed as cell-based. As to conditions: mouse, uninfected RAW 264.7 cells, Table 2, at least three independent experiments. On the procedure: Cytotoxicity: The cytotoxicity of the Compounds was evaluated by the MTS method, by exposing uninfected cells to the same concentrations of compounds for 3 days. The %cell viability was calculated as (ODtreated/ODCC) × 100, where ODCC is the OD of uninfected untreated cells and ODtreated are uninfected cells treated with compound. The CC50 was defined as the compound concentration that reduces the number of viable cells by 50%[34].
(Formazan colour is commonly taken as a measure of viable cells.)

The subject of another series is HuNoV GI.1 replicon. Kind of series: HuNoV GI replicon assay (HGT-NV cells, qRT-PCR). It is filed as cell-based, human norovirus GI.1. On the procedure:
Given that in this system the gene encoding for the major capsid protein is replaced by a neomycin resistance gene, no new virus particles will be produced but the non-structural proteins are expressed and the replication of the genomic RNA can be studied.
Cells and virus: MNV (virus strain MNV-1.CW1) was propagated in RAW 264.7 cells grown in DMEM (Life Technologies, Gent, Belgium) supplemented with 10% or 2% FBS, 2 mM L-glutamine, 20 mM HEPES, 0.075 g/L sodium bicarbonate, 1 mM sodium pyruvate, 100 U penicillin/mL and 100 µg/mL streptomycin at 37 °C in a humidified atmosphere of 5% CO2. The human norovirus GI.1 replicon harboring gastric tumor-1 cell line (HGT-NV) (kindly provided by Dr. Ian Goodfellow, University of Cambridge) was maintained in DMEM supplemented with 10% FBS, 2mM L-glutamine, 0.075 g/L sodium bicarbonate and 1.0 mg/ml of Geneticin (G418; Life Technologies), at 37 °C in a humidified atmosphere of 5% CO2[34].
Antiviral assay with the HGT-NV replicon: The inhibitory effect of Compounds on human norovirus replication was assessed by quantification of the levels of HuNoV GI replicon RNA and of the reference (housekeeping) gene β-actin mRNA [by quantitative reverse transcription polymerase chain reaction (qRT-PCR)]. To this end, HGT cells (2000 cells/well) were seeded in 96-well plates, in complete DMEM without the selection marker G418. Following an incubation period of 24 h, a serial dilution of rupintrivir was added to the cultures. After 72 h of incubation, cell monolayers were washed with phosphate-buffered saline (PBS) and collected for quantification of RNA load by qRT-PCR. Intracellular RNA was extracted from cells using the cell-to-cDNA lysis buffer (Ambion, Life Technologies). For detection of HuNoV GI replicon RNA, forward (5′-CCG GCT ACC TGC CCA TTC-3′), reverse (5′-CCAGATCATCCTGATCGACAAG-3′) primers and probe (5′-FAM-ACATCGCATCGAGCGAGCACGTAC-TAMRA-3′) for the neomycin gene were used. For detection of β-actin mRNA, forward (5′-GGCATCCACGAAACTACCTT-3′), reverse (5′-AGCACTGTGTTGGCGTACAG-3′) primers and probe (5′-HEX-ATCATGAAGTGTGACGTGGACATCCG-BHQ1–3′) were used. One-step qRT-PCR was performed in a 20 µL reaction mixture containing 10 µl 2X iTaq Universal SYBR® Green one step reaction mix (Bio-rad, California, USA), 5.17 µl RNAse free water, 0.5 µl of iScript reverse transcriptase (Bio-rad, California, USA), 4 µl of the template RNA and either 300 nM of HuNoV GI replicon primers and probe, 300 nM of β-actin primers and 200 nM of probe. Cycling conditions were: reverse transcription at 50 °C for 10 min, initial denaturation at 95 °C for 3 min, followed by 40 cycles of denaturation at 95 °C for 15 s, annealing and extension at 60 °C for 30 seconds (Roche Lightcycler®96, Roche Diagnostics, Belgium). To determine the relative expression levels of HuNoV GI replicon RNA, β-actin was used as a normalizer and ratios were calculated using the Pfaffl method. The Expression Ratio (HuNoV GI Replicon/β-actin) was calculated as: Expression Ratio = (E HuNoV)^ΔCT, HuNoV (CC – TC)/(Eβ-actin)^ΔCT, β-actin (CC – TC), where E HuNoV and Eβ-actin represent the amplification efficiency (E = 10^–1/slope) for the HuNoV GI replicon and β-actin qRT-PCR reactions, respectively. ΔCT, HuNoV (CC – TC) is the Ct of untreated control cells (CC) minus the Ct of cells treated with a compound concentration (TC) obtained with HuNoV GI replicon primers and probe. ΔCT, β-actin (CC – TC) is the Ct of untreated control cells (CC) minus the Ct of cells treated with a compound concentration (TC) obtained with β-actin primers and probe. Efficiency values (E HuNoV and Eβ-actin) were determined for each qRT-PCR reaction.

Series [2] is described as follows: Crystal formation seen in the cell-based assays. The format is physicochemical. Particulars: observed with the HuNoV GI replicon results. A general note: In antiviral work, replicon cells carry a viral genome segment that copies itself.
In a further series the test system is HuNoV (GII.4) RdRp. Kind of series: Counter-screen gel-shift assay of primed elongation activity (PE44-NoV template). It is filed as biochemical, human norovirus. Particulars: fixed concentration of 100 μM. On the procedure:
To further confirm RdRp inhibition and exclude any potential false positives from the first fluorescence RdRp assay, the eight molecules were then assessed using a gel-shift enzyme activity assay at a fixed concentration of 100 μM, following a procedure previously adopted by our research group.
Figure 5 A counter-screen gel-shift assay was used to confirm HuNoV (GII.4) RdRp inhibitory activity of compounds 2, 3, 34 and 35 (A), 4, 5, 6 (B) and 7 (C). The eight compounds were examined for inhibition of primed elongation activity. PE44-NoV RNA templates (32 nucleotides) were extended (44 nucleotides) by the RdRp in the absence of any test compounds (0.5% DMSO [vol/vol] negative control) or with test compounds at a fixed concentration of 100 μM. […] Full-length gels are presented in Supplementary Fig. S3.
Fluorescent RdRp activity assays were carried out as previously described[12],[29]. Briefly, RdRp activity was quantified by monitoring the formation of double-stranded RNA (dsRNA) from a single stranded homopolymeric template, poly(C) (Sigma Aldrich), using the fluorescent dye PicoGreen (Life Technologies, Carlsbad, CA, USA). RdRp assays were performed in 384-well plates, and each reaction mixture contained 400 ng enzyme, 45 μM GTP, 10 ng/μL poly(C) RNA, 2.5 mM MnCl2, 5 mM dithiothreitol, (DTT), 0.01% bovine serum albumin (BSA), and 0.005% Tween 20 in 20 mM Tris-HCl, pH 7.5, with a final reaction volume of 25 μL. The PPNDS and compound 1 were used as a positive controls. RdRps were incubated for 10 mins at 30 °C in the presence of the test compounds or the compound vehicle DMSO (0.5% vol/vol) before addition into the reaction mixture, which was then allowed to run 15 min at 30 °C then terminated with 10 mM EDTA, followed by PicoGreen staining and dsRNA quantitation. GraphPad Prism V6.05 (La Jolla, CA, USA) was used to plot the IC50 values. A secondary gel-based polymerase activity assay was used as a counter-screen as described below, to exclude the possibility of RdRp activity enhancement. Primed elongation activity was examined in a gel-based assay as previously described[12],[29] using the RNA template (PE44-NoV). Gels were imaged using BioRad (Hercules, CA, U.SA) Geldoc Universal Hood II, running BioRad Image Lab software, V4.1, build 16.
For orientation: Counterscreens check selectivity or assay interference.

For series [3] the following is noted: similar MNV cell-based assay; cited from earlier work.

Molecules are shown by their SMILES. “And” between values parts separate entries of the source, which are not always exact repeats. Identical values can stand only once. Like-named read-outs stand apart in the source and are kept apart here.

Regarding `O=C(NC(=S)Nc1ccc(N2CCN(S(=O)(=O)c3ccccc3)CC2)cc1)c1ccccc1` [Compound 60, N-((4-(4-(Phenylsulfonyl)piperazin-1-yl)phenyl)carbamothioyl)benzamide], the EC50 (in general, the concentration giving half of the maximal effect) in the series on MNV was 66.6 ± 12.3 µM; in the series on HuNoV GI.1 replicon (Norwalk virus, HGT-1, 72 h, read-out: EC50 values (column head printed 'M'), HuNoV GI replicon in HGT-1 cells, replicon RNA by qRT-PCR) it was 8 µM; with HuNoV GI.1 replicon (read-out: EC50 values (column head printed 'M'), HuNoV GI replicon in HGT-1 cells, 72 h, replicon RNA by qRT-PCR), 8.5 ± 2.1 µM. For the same compound, the half-maximal cytotoxic concentration (CC50) (commonly the concentration giving 50% cytotoxicity) at 3 days in series [1] was more than 100 µM. In addition, in the series with HuNoV GI.1 replicon (HuNoV GI replicon in HGT-1 cells, 72 h, replicon RNA by qRT-PCR), the “EC50 values (column head printed 'M')” value is “low micromolar range”. For the same compound, the “concentration from which crystals form” value in series [2] is not below 25 µM.
For `O=C1NN(c2ccccc2)C(=O)/C1=C/c1ccc(-c2ccc(S(=O)(=O)Nc3ccccc3)cc2)o1` [Compound 1], the “inhibition of primed elongation activity (gel-shift)” value in the series on HuNoV (GII.4) RdRp is “complete inhibition”. For the same compound, the half-maximal cytotoxic concentration (CC50) in series [3] was ~64 µM and 62.8 µM.

Values taken from PMC6895199, “A new antiviral scaffold for human norovirus identified with computer-aided approaches on the viral polymerase” (Scientific Reports, 2019).
